Laboratory results taken from PubChem BioAssay AID256 (DTP/NCI, 2004).
Values joined by “and” are separate entries in the source; they are usually repeats but may differ in a detail not shown here. Identical values can stand only once. Inconclusive results and toxic doses are left out. The calls were made as follows: active = survival T/C of 150% or more; inactive = T/C below 125% in these data.

Test system: CD2F1 mice, L1210 leukemia ip, survival T/C
Assay: NCI In Vivo Anticancer Drug Screen. Data for tumor model L1210 Leukemia (intraperitoneal) in CD2F1 (CDF1) mice
Settings: higher = longer survival
How it was run: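 Antitumor effect is scored in animals hosting a serially transplanted tumor. Values compare compound-dosed animals against vehicle-only controls as a simple quotient.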

[1] = endpoint: mean survival time, dose: 400.0 mg/kg/injection, schedule: Q01DX009 (ip), vehicle: saline
[2] = endpoint: mean survival time, dose: 12.5 mg/kg/injection, schedule: Q04DX003 (ip), vehicle: saline with Tween-80
[3] = endpoint: mean survival time, dose: 100.0 mg/kg/injection, schedule: Q01DX009 (ip), vehicle: saline with Tween-80
[4] = endpoint: mean survival time, dose: 200.0 mg/kg/injection, schedule: Q01DX009 (ip), vehicle: saline with Tween-80
[5] = endpoint: mean survival time, dose: 100.0 mg/kg/injection, schedule: Q04DX003 (ip), vehicle: saline with Tween-80
[6] = endpoint: mean survival time, dose: 200.0 mg/kg/injection, schedule: Q04DX003 (ip), vehicle: saline with Tween-80
[7] = endpoint: mean survival time, dose: 400.0 mg/kg/injection, schedule: Q04DX003 (ip), vehicle: saline with Tween-80
[8] = endpoint: mean survival time, dose: 400.0 mg/kg/injection, schedule: Q01DX009 (ip), vehicle: saline with Tween-80

Measured: T/C

CC(=O)OCC1OC(n2ncc(=O)[nH]c2=O)C(OC(C)=O)C1OC(C)=O (centres undefined)
inactive: endpoint: mean survival time, dose: 12.5 mg/kg/injection, schedule: Q03HX024 (ip), vehicle: saline 112 % of control | endpoint: mean survival time, dose: 25.0 mg/kg/injection, schedule: Q03HX024 (ip), vehicle: saline 116 % of control | endpoint: mean survival time, dose: 50.0 mg/kg/injection, schedule: Q03HX024 (ip), vehicle: saline 106 % of control | endpoint: mean survival time, dose: 100.0 mg/kg/injection, schedule: Q01DX001 (ip), vehicle: saline 106 % of control | endpoint: mean survival time, dose: 200.0 mg/kg/injection, schedule: Q01DX001 (ip), vehicle: saline 103 % of control | endpoint: mean survival time, dose: 400.0 mg/kg/injection, schedule: Q01DX001 (ip), vehicle: saline 106 % of control | [1] 108 % of control | endpoint: mean survival time, dose: 800.0 mg/kg/injection, schedule: Q01DX001 (ip), vehicle: saline 117 % of control | endpoint: mean survival time, dose: 800.0 mg/kg/injection, schedule: Q01DX009 (ip), vehicle: saline 93 % of control

[Cl][Pt+].[NH-]c1ccccc1C=Nc1ccccc1C=O
inactive: endpoint: median survival time, dose: 11.5 mg/kg/injection, schedule: Q04DX003 (ip), vehicle: saline with Tween-80 100 % of control | endpoint: median survival time, dose: 23.0 mg/kg/injection, schedule: Q04DX003 (ip), vehicle: saline with Tween-80 105 % of control | endpoint: median survival time, dose: 46.0 mg/kg/injection, schedule: Q04DX003 (ip), vehicle: saline with Tween-80 105 % of control | endpoint: median survival time, dose: 92.0 mg/kg/injection, schedule: Q04DX003 (ip), vehicle: saline with Tween-80 97 % of control | endpoint: median survival time, dose: 184.0 mg/kg/injection, schedule: Q04DX003 (ip), vehicle: saline with Tween-80 98 % of control

Fc1c(F)c(F)[c]([Sn]([c]2ccccc2)([c]2ccccc2)[c]2ccccc2)c(F)c1F
inactive: [2] 88 % of control | endpoint: mean survival time, dose: 25.0 mg/kg/injection, schedule: Q04DX003 (ip), vehicle: saline with Tween-80 88 % of control

Cc1cc2ncn(CC(=O)O)c2cc1C
inactive: [3] 98 % of control | [4] 93 % of control

COc1cc(C)c(Cl)[n+]([O-])n1
inactive: endpoint: mean survival time, dose: 3.13 mg/kg/injection, schedule: Q04DX002 (ip), vehicle: saline with Tween-80 104 % of control | endpoint: mean survival time, dose: 6.25 mg/kg/injection, schedule: Q04DX002 (ip), vehicle: saline with Tween-80 104 % of control | endpoint: mean survival time, dose: 12.5 mg/kg/injection, schedule: Q04DX002 (ip), vehicle: saline with Tween-80 97 % of control and 104 % of control

CCOC(=O)c1cc([N+](=O)[O-])c[nH]1
inactive: endpoint: median survival time, dose: 25.0 mg/kg/injection, schedule: Q01DX009 (ip), vehicle: Klucel (hydroxypropylcellulose) (HPC) 101 % of control | endpoint: median survival time, dose: 50.0 mg/kg/injection, schedule: Q01DX009 (ip), vehicle: Klucel (hydroxypropylcellulose) (HPC) 98 % of control | endpoint: median survival time, dose: 100.0 mg/kg/injection, schedule: Q01DX009 (ip), vehicle: Klucel (hydroxypropylcellulose) (HPC) 97 % of control | endpoint: median survival time, dose: 200.0 mg/kg/injection, schedule: Q01DX009 (ip), vehicle: Klucel (hydroxypropylcellulose) (HPC) 98 % of control

CC(CO)CCC(=O)C(C)C1CC2(C)CCC3C(CCC4CC(O)CCC43C)C2C12SCCS2 (centres undefined)
inactive: [5] 98 % of control | [6] 102 % of control | [7] 98 % of control

CC1=C/C(=N/NC(N)=O)CC(C)C1 (centres undefined)
inactive: [3] 91 % of control | [4] 97 % of control | [8] 98 % of control

COC(=O)CCC(=O)N(C)CCc1c[nH]c2ccccc12
inactive: [3] 100 % of control | [5] 93 % of control | [4] 94 % of control | [6] 93 % of control | [8] 100 % of control | [7] 98 % of control

c1ccc(C(=NN=C(c2ccccc2)c2ccccc2)c2ccccc2)cc1
inactive: [5] 97 % of control | [6] 97 % of control | [7] 95 % of control | endpoint: mean survival time, dose: 800.0 mg/kg/injection, schedule: Q04DX003 (ip), vehicle: saline with Tween-80 92 % of control

CC(CNC(=O)C12CC3CC(CC(C3)C1)C2)NC(=O)C12CC3CC(CC(C3)C1)C2 (centres undefined)
inactive: endpoint: median survival time, dose: 12.5 mg/kg/injection, schedule: Q01DX005 (ip), vehicle: DMSO 101 % of control | endpoint: median survival time, dose: 25.0 mg/kg/injection, schedule: Q01DX005 (ip), vehicle: DMSO 104 % of control | endpoint: median survival time, dose: 50.0 mg/kg/injection, schedule: Q01DX005 (ip), vehicle: DMSO 101 % of control | endpoint: median survival time, dose: 100.0 mg/kg/injection, schedule: Q01DX005 (ip), vehicle: DMSO 98 % of control | endpoint: median survival time, dose: 200.0 mg/kg/injection, schedule: Q01DX005 (ip), vehicle: DMSO 101 % of control

OCC12COCN1COC2
inactive: endpoint: mean survival time, dose: 12.5 mg/kg/injection, schedule: Q01DX009 (ip), vehicle: saline 98 % of control and 104 % of control | endpoint: mean survival time, dose: 25.0 mg/kg/injection, schedule: Q01DX009 (ip), vehicle: saline 94 % of control and 96 % of control | endpoint: mean survival time, dose: 50.0 mg/kg/injection, schedule: Q01DX009 (ip), vehicle: saline 101 % of control and 104 % of control | endpoint: mean survival time, dose: 100.0 mg/kg/injection, schedule: Q01DX009 (ip), vehicle: saline 98 % of control and 101 % of control | endpoint: mean survival time, dose: 200.0 mg/kg/injection, schedule: Q01DX009 (ip), vehicle: saline 96 % of control and 106 % of control | [1] 109 % of control and 112 % of control

CN(C)C=Nc1ccc([N+](=O)[O-])cc1
inactive: [5] 101 % of control | [6] 101 % of control | [7] 92 % of control

CN(C)c1ccc(/C=N/NC(=O)c2ccccc2)cc1
inactive: endpoint: mean survival time, dose: 3.12 mg/kg/injection, schedule: Q04DX003 (ip), vehicle: saline with Tween-80 90 % of control | endpoint: mean survival time, dose: 6.25 mg/kg/injection, schedule: Q04DX003 (ip), vehicle: saline with Tween-80 96 % of control | [2] 94 % of control

O/N=C(/Cc1ccccc1)c1ccccc1
inactive: endpoint: mean survival time, dose: 100.0 mg/kg/injection, schedule: Q01DX001 (ip), vehicle: saline with Tween-80 100 % of control | endpoint: mean survival time, dose: 200.0 mg/kg/injection, schedule: Q01DX001 (ip), vehicle: saline with Tween-80 92 % of control | endpoint: mean survival time, dose: 400.0 mg/kg/injection, schedule: Q01DX001 (ip), vehicle: saline with Tween-80 90 % of control

C[N+](C)(C)C
inactive: endpoint: mean survival time, dose: 5.0 mg/kg/injection, schedule: Q01DX001 (ip), vehicle: saline 98 % of control | endpoint: mean survival time, dose: 5.0 mg/kg/injection, schedule: Q01DX009 (ip), vehicle: saline sonified 95 % of control | endpoint: mean survival time, dose: 5.0 mg/kg/injection, schedule: Q04DX003 (ip), vehicle: saline 100 % of control | endpoint: mean survival time, dose: 6.25 mg/kg/injection, schedule: Q01DX009 (ip), vehicle: saline with Tween-80 96 % of control | endpoint: mean survival time, dose: 10.0 mg/kg/injection, schedule: Q01DX009 (ip), vehicle: saline sonified 87 % of control | endpoint: mean survival time, dose: 20.0 mg/kg/injection, schedule: Q01DX001 (ip), vehicle: saline 98 % of control

Oc1ccccc1C=Nc1ccccc1.Oc1ccccc1C=Nc1ccccc1.[Co]
inactive: endpoint: mean survival time, dose: 100.0 mg/kg/injection, schedule: Q04DX003 (ip), vehicle: other 92 % of control

O=C(Nc1ccccc1)c1ccccc1C(O)(c1ccccc1)c1ccccn1 (centres undefined)
inactive: [5] 97 % of control | [6] 101 % of control | [7] 86 % of control

COc1ccc(C(C)=O)cc1[N+](=O)[O-]
inactive: [3] 98 % of control | [5] 96 % of control | [4] 97 % of control | [6] 102 % of control | [7] 94 % of control

O=C(O)c1cc(Cl)[nH]c(=O)c1
inactive: [5] 91 % of control | [6] 91 % of control | [7] 91 % of control

CCOC(=O)COC(CC[P+](c1ccccc1)(c1ccccc1)c1ccccc1)(C(=O)c1ccccc1)c1ccccc1 (centres undefined)
inactive: endpoint: mean survival time, dose: 5.0 mg/kg/injection, schedule: Q01DX001 (ip), vehicle: saline with Tween-80 100 % of control | endpoint: mean survival time, dose: 6.25 mg/kg/injection, schedule: Q01DX001 (ip), vehicle: saline with Tween-80 102 % of control | endpoint: mean survival time, dose: 12.5 mg/kg/injection, schedule: Q01DX001 (ip), vehicle: saline with Tween-80 97 % of control | endpoint: mean survival time, dose: 20.0 mg/kg/injection, schedule: Q01DX001 (ip), vehicle: saline with Tween-80 109 % of control | endpoint: mean survival time, dose: 25.0 mg/kg/injection, schedule: Q01DX001 (ip), vehicle: saline with Tween-80 108 % of control
